This passage reports ED50, IC50 in vitro and ED50 in vivo results from patent US4778800A, “3-oxadiazole and 3-carboxylic acid beta-carboline derivatives, and their use as psychotropic agents” (Schering Aktiengesellschaft, priority 1985, dated 1988).

One may read the ED50 as the dose that gives a 50% effect, or the effect in half of the subjects.

Assay [1] in a line: anticonvulsive action: stopping of spasms induced by pentylenetetrazole (pentazol). The note with it: Mus musculus, ip, 0.5 h; mice, i.p., pentazol 150 mg/kg s.c. 15-30 minutes later; protects 50% of animals from spasms and death (Litchfield and Wilcoxon); read-out: PTZ ED50. It counts as in vivo. How it is done:
In the pharmacological tests, the compounds according to the invention especially show anxiolytic and anticonvulsive effectiveness. For examination of the anticonvulsive action, stopping of spasms induced by pentylenetetrazole (pentazol) was examined. Pentazol is administered subcutaneously in an amount of 150 mg/kg as a hydrochloric acid solution (pH 2-3) 15-30 minutes after the intraperitoneal application of the test substance. This amount induces clonic and tonic spasms which lead to death in untreated animals. The number of mice which show spasms and the number of them that died 30 minutes after pentazol are recorded.
The ED50 values indicated in the table were determined according to the method of Litchfield and Wilcoxon (J. Pharmacol. exp. Ther. 96 (1949) […]) as the amount of antagonistically acting substance which protects 50% of the animals from spasms and death.

For assay [2], the target named is benzodiazepine receptors. Briefly: displacement of 3H-flunitrazepam from benzodiazepine receptors in vitro. It counts as binding. The note with it: 3H-flunitrazepam 1.0 nM, 0° C., rat forebrain membranes, pH 7.1.
The test system of assay [3] is benzodiazepine receptor. Briefly: in vivo displacement of 3H-flunitrazepam binding on the benzodiazepine receptor in live brain. The note with it: mice, normally i.p.; 3H-flunitrazepam i.v. after 15 minutes; 50% reduction of specific binding in forebrain. For orientation: Loss of bound radioactivity is the signal in a displacement assay; it reports binding, not function.

Molecules are shown by their SMILES. In brackets after ≈: the same amount, converted by molar mass.

As to `CCOCc1cccc2[nH]c3cnc(C(=O)OCC)c(C)c3c12` [5-CH2 OC2 H5, CH3, COOC2 H5, reference compound], in assay [1], the median effective dose (ED50) was over 100 mg/kg. In addition, in assay [2], the IC50 in vitro amounted to 0.8 ng/mL (≈ 2.56 nM). This compound also displayed an ED50 in vivo in assay [3] of 1.0 mg/kg.
For `CCOC(=O)c1ncc2[nH]c3cccc(COC)c3c2c1C` [5-CH2 OCH3, CH3, COOC2 H5, reference compound], in that order: over 100 mg/kg, 0.45 ng/mL (≈ 1.51 nM) and 2.0 mg/kg.
The corresponding values for `CCOC(CC)c1cccc2[nH]c3cnc(-c4nc(CC)no4)c(COC)c3c12` (stereo not drawn) [5-CH(C2 H5)OC2 H5, CH2 OCH3, drawing 8] are 0.3 mg/kg, 0.2 ng/mL (≈ 0.507 nM) and 3 mg/kg.
Take `CCOC(CC)c1cccc2[nH]c3cnc(-c4nc(CC)no4)c(C)c3c12` (stereo not drawn) [5-CH(C2 H5)OC2 H5, CH3, drawing 7, 3-[5-(3-ethyl-1,2,4-oxadiazol)yl]-4-methyl-5-(1-ethoxopropyl)-beta-carboline]: the ED50 in assay [1] worked out at 0.6 mg/kg. This compound also returned an IC50 in vitro in assay [2] of 0.4 ng/mL (≈ 1.1 nM). The ED50 in vivo in assay [3] stood at 3 mg/kg.
For `CCOC(C)c1cccc2[nH]c3cnc(-c4nc(CC)no4)c(C)c3c12` (stereo not drawn) [5-CH(CH3)OC2 H5, CH3, drawing 6, 3-[5-(3-ethyl-1,2,4-oxadiazol)yl]-4-methyl-5-(1-ethoxyethyl)-beta-carboline], the ED50 in assay [1] was found to be 0.4 mg/kg. For the same compound, the IC50 in vitro in assay [2] amounted to 0.3 ng/mL (≈ 0.856 nM). The ED50 in vivo in assay [3] is given as 0.09 mg/kg.
For `CCCOC(C)c1cccc2[nH]c3cnc(C(=O)OCC)c(C)c3c12` (stereo not drawn) [5-CH(CH3)OC3 H7, CH3, COOC2 H5, 5-(1-propoxyethyl)-4-methyl-beta-carboline-3-carboxylic acid ethyl ester], in that order: 1 mg/kg, 0.4 ng/mL (≈ 1.18 nM) and 0.6 mg/kg.
The corresponding values for `CCCOC(C)c1cccc2[nH]c3cnc(C(=O)OC(C)C)c(C)c3c12` (stereo not drawn) [5-CH(CH3)OC3 H7, CH3, drawing 5] are 0.8 mg/kg, 0.75 ng/mL (≈ 2.12 nM) and 1.8 mg/kg.
The corresponding values for `CCOC(C)c1ccc2[nH]c3cnc(-c4nc(CC)no4)c(CC)c3c2c1` (stereo not drawn) [6-CH(CH3)OC2 H5, C2 H5, drawing 9, 3-[5-(3-ethyl-1,2,4-oxadiazol)yl]-4-ethyl-6-(1-ethoxyethyl)-beta-carboline] are 2.3 mg/kg, 0.7 ng/mL (≈ 1.92 nM) and 1.1 mg/kg.
Turning to `CCOC(=O)c1ncc2[nH]c3ccc(C(C)OCC(F)(F)F)cc3c2c1C` (stereo not drawn) [6-CH(CH3)OCH2 CF3, CH3, COOC2 H5, 4-methyl-6-(1-(2,2,2-trifluoroethoxy)-ethyl)-beta-carboline-3-carboxylic acid ethyl ester], the ED50 in assay [1] is 2.4 mg/kg. This compound also had an IC50 in vitro in assay [2] of 0.8 ng/mL (≈ 2.1 nM). Further, the ED50 in vivo in assay [3] is on record as 1.8 mg/kg.
For `CCOC(=O)c1ncc2[nH]c3ccc(C(C)SCC)cc3c2c1C` (stereo not drawn) [6-CH(CH3)SC2 H5, CH3, COOC2 H5, 4-methyl-6-(1-ethylthioethyl)-beta-carboline-3-carboxylic acid ethyl ester], in that order: 4 mg/kg, 1.2 ng/mL (≈ 3.5 nM) and 0.43 mg/kg.
